≈ marks a conversion by molar mass, not a printed value. Where two headings read alike, the source gives them in different places.
Experiments:
B. anthracis = experiment: microbe, parasite or virus in culture; format: cell-based, Bacillus anthracis
B. anthracis spores = conditions: mouse, in vivo
[1] = female, CD-1, mouse, in vivo, 32 mg/kg
in vivo = conditions: female, CD-1, mouse, 32 mg/kg

## CN[C@H](CC(C)C)C(=O)N[C@H]1C(=O)N[C@@H](CC(N)=O)C(=O)N[C@H]2C(=O)N[C@H]3C(=O)N[C@H](C(=O)N[C@H](C(=O)O)c4cc(O)cc(O)c4-c4cc3ccc4O)[C@H](O[C@H]3C[C@](C)(N)[C@@H](O)[C@H](C)O3)c3ccc(c(Cl)c3)Oc3cc2cc(c3O[C@@H]2O[C@H](CO)[C@@H](O)[C@H](O)[C@H]2O[C@H]2C[C@](C)(NCc3ccc(-c4ccc(Cl)cc4)cc3)[C@@H](O)[C@H](C)O2)Oc2ccc(cc2Cl)[C@H]1O [Oritavancin, N-(4-(4-chlorophenyl)benzyl)A82846B]
B. anthracis
  MIC90 with polysorbate-80 lower than MIC90 in the absence of polysorbate-80: 16 fold
B. anthracis; Bacillus anthracis
  MIC90: 0.12 µg/mL (≈ 0.0669 µM)
B. anthracis spores
  spore/tissue load at the termination of the study: ≤ 5×10^4 CFU/g tissue
[1]; ip
  time-to-peak (Tmax): 4 h
[1]; iv
  time plasma concentration remained above the MIC for the Ames strain: 24 to 48 h
  time-to-peak (Tmax): 0.25 h
In vivo; ip
  AUC: 840 µg·h/mL
  Cmax: 95 µg/mL
In vivo; iv
  AUC: 950 µg·h/mL
  Cmax: 270 µg/mL
